From patent publication US8440718B2, “Modulation of inflammation related to columnar epithelia” (The Brigham and Women's Hospital, Inc., priority 1991, dated 2013)
Several values for one entry are separate records, joined by “and”; a condition that tells them apart may be missing. Equal values may be shown once.

Key:
[1] = tested on: human PMN migration across inverted T84 epithelial monolayers; experiment: PMN transepithelial migration assay, basolateral-to-apical direction (inverted monolayers), fMLP gradient, myeloperoxidase readout; assay type: cell-based
Description: Cell culture Approximately 350 epithelial monolayers were used for these studies. T84 intestinal epithelial cells (passages 70-95) were grown and maintained as confluent monolayers on collagen coated permeable support. Monolayers were grown on 0.33 cm^2 ring-supported polycarbonate filters (Costar Corp., Cambridge, Mass.) and utilized 6-14 days after plating as described in Example 2. Transepithelial resistance to passive ion flow was measured as described in Parkos C. A., et al. (1991). J. Clin. Invest. 88: 1605-1612); and Parkos C. A., et al. (1992). J. Cell. Biol. 117: 757-764). Inverted monolayers used to study migration of PMN in the basolateral-to-apical direction were constructed as described in Parkos C. A., et al. (1991). J. Clin. Invest. 88:1605-1612).
(§1) Migration assay: The PMN transepithelial migration assay has been detailed in Nash S., et al. (1987). J. Clin. Invest. 80: 1104-1113; Nash S., et al. (1991). J. Clin. Invest 87: 1474-1477); Parkos C. A., et al. (1991). J. Clin. Invest. 88: 1605-1612); and Parkos C. A., et al. (1992). J. Cell. Biol. 117: 757-764. Briefly, human PMN were isolated from normal human volunteers and suspended in modified HBSS (without Ca^2+ and Mg^2+, with 10 mM Hepes, pH 7.4, Sigma) at a concentration of 5×10^7/ml. Prior to addition of PMN, T84 monolayers were extensively rinsed in HBSS to remove residual serum components. Migration assays were performed by the addition of PMN (40 μl) to HBSS ([…]) in the upper chambers after chemoattractant (1 μM fMLP in HBSS) was added to the opposing (lower) chambers. Unless otherwise indicated, PMN were not washed free of LXA4 prior to addition to monolayers, and therefore, a five-fold dilution of lipoxin was present during the migration assay. For apical-to-basolateral migration experiments, PMN (2×10^6) were added at time 0. Migration in the basolateral-to-apical direction, while qualitatively similar, is substantially more efficient than in the apical-to-basolateral direction. (Parkos C. A., et al. (1991). J. Clin. Invest. 88: 1605-1612). Therefore, 5-fold fewer PMN (4×10^5) were added when migration proceeded in the basolateral-to-apical direction in order that baseline migration signals be approximately equivalent in both directions. (Parkos C. A., et al. (1991). J. Clin. Invest. 88: 1605-1612). Migration was allowed to proceed for 120 minutes, unless otherwise noted. All PMN transepithelial migration experiments were performed in a 37° C. room to ensure that epithelial monolayers, solutions, plasticware, etc., were maintained at uniform 37° C. temperature.
(§2) Migration was quantitated by assaying for the PMN azurophilic granule marker myeloperoxidase (MPO) as described previously (Parkos C. A., et al. (1991). J. Clin. Invest 88: 1605-1612). Following each migration assay, non-adherent PMN were extensively washed from the surface of the monolayer and PMN cell equivalents (PMN CE), estimated from a standard curve, were assessed as the number of PMN's associated with the monolayer, the number which had completely traversed the monolayer (ie. across the monolayer into the reservoir bath), as well as the total number of transmigrating PMN (the sum of monolayer and reservoir-associated PMN).
Data Presentation: Individual experiments were performed using large numbers of uniform groups of monolayers and PMN from individual blood donors on individual days. PMN isolation was restricted to five different blood donors (repetitive donations) over the course of these studies. Myeloperoxidase assay data were compared by two-factor analysis of variance (ANOVA) or by comparison of means using Student's t-Test PMN migration results are represented as PMN CE derived from a daily standard PMN dilution curve. Monolayer-associated PMN are represented as the number of PMN CE per monolayer and reservoir-associated PMN (ie. PMN which had completely traversed the monolayer into the lower chamber) are represented as the number of PMN CE/ml (total volume of 1 ml). […]

[2] = tested on: human PMN migration across T84 epithelial monolayers; experiment: PMN chemotactic capacity toward LXA4 placed in lower chamber, apical-to-basolateral; assay type: cell-based; details: compared to 1 μM fMLP
Description: as §1, §2
To investigate whether LXA4 could serve to stimulate PMN migration in this assay system, dilutions of LXA4 in the range of 0.01-10 nM were placed in the lower chamber of migration wells. Untreated PMN's were added to the upper chamber and assessed for chemotactic capacity toward LXA4 in the apical-to-basolateral direction. […]

With `CCCCC[C@H](O)/C=C/C=C\C=C\C=C\[C@@H](O)[C@@H](O)CCCC(=O)O` (relative stereo) [LXA4, (5S, 6R, 15S)-trihydroxy-7,9,13-trans-11-cis-eicosatetraenoic acid] as the molecule, how does the “inhibition of PMN migration, basolateral-to-apical (total MPO activity)” value ([1]; 10 nM, 15 min pre-incubation 37°C, 1 μM fMLP, 120 min) read?
The value was 28±4% and 25%.

What about the “transmigrated (reservoir) PMN, basolateral-to-apical” value ([1]; PMN pre-exposed 1 nM LXA4 15 min) of the same molecule?
Its value is 6.99±1.33 ×10^4 PMN/ml.

And the “monolayer-associated PMN, basolateral-to-apical” value ([1]; PMN pre-exposed 10 nM LXA4 15 min)?
The value was 2.00±0.31.

What about the “PMN migration toward LXA4, % of fMLP-induced PMN migration” value (“PMN migration toward LXA4, %” for short) ([2]; 0.01 nM LXA4 in lower chamber) of the same molecule?
Its value is 6±2.1%.

What about the “PMN migration toward LXA4, %” value ([2]; 0.1 nM LXA4 in lower chamber) of the same molecule?
Its value is 9±3.6%.

What about the “PMN migration toward LXA4, %” value ([2]; 1.0 nM LXA4 in lower chamber) of the same molecule?
Its value is 6±2.4%.

What about the “PMN migration toward LXA4, %” value ([2]; 10 nM LXA4 in lower chamber) of the same molecule?
The value was 12±1.4%.
